The values below come from patent US7329666B2, “Derivatives of variolin B” (Pharma Mar, S.A., priority 2000, dated 2008).

The test system of one data set is P388 cell line. To be noted: Tetrahedron 1994, 50, 3987-3992; cited from earlier work.
A further data set has as its system P-388. Nature of the data set: cytotoxicity against P-388. Format: cell-based. The following applies: Mus musculus, P388. Here is the method:
(§1) The cytotoxicity of the compounds of scheme 4 of this invention is illustrated by the following IC50 μM data: […]

The next data set relates to A-549. Nature of the data set: cytotoxicity against A-549. In kind it is cell-based. To be noted: Homo sapiens, A549. The procedure: as §1
A further data set deals with other microorganisms. To be noted: cited from earlier work.
A further data set concerns Herpes simplex. To be noted: cited from earlier work.
In a further data set the test system is HT-29. Nature of the data set: cytotoxicity against HT-29. To be noted: Homo sapiens. Format: cell-based. The procedure: as §1
The subject of a further data set is HCT 116 cell line. To be noted: cited from earlier work.
The next data set relates to Sacharomyces cerevisiae. The following applies: cited from earlier work.
For data set [1] the following is noted: cited from earlier work.

As usually defined, the IC50 is the point on the concentration scale where inhibition reaches its midpoint. A lower IC50 goes with greater potency in that assay. `Nc1nccc(-c2c3c(O)ccnc3n3c(N)nccc23)n1` [variolin B]: the “cytotoxic activity against the P388 cell line” value with P388 cell line is on record as “cytotoxic activity”. Further, the IC50 in the data set with P-388 is 850 nM; in the data set with A-549 it was 170 nM; in the data set on HT-29, 90 nM. Further, the “activity against a range of other microorganisms” value in the data set with other microorganisms is “inactive”. Also, in the data set with Herpes simplex, the “effectiveness against Herpes simplex” value is “effective”.
Take `CSc1nccc(-c2c3cccnc3n3c(NC(C)=O)nccc23)n1` [Compound 20a, 9-Acetylamino-5-(2-methanesulfanylpyrimidin-4-yl)pyrido[3′,2′:4,5]-pyrrolo-[1,2-c]pyrimidine]: the values for the IC50 with P-388, in the data set with A-549 and in the data set on HT-29 were greater than 3000 nM, 290 nM and 290 nM, respectively.
For `CSc1nccc(-c2c3cccnc3n3c(N)nccc23)n1` [Compound 21, 9-Amino-5-(2-methanesulfanylpyrimidin-4-yl)pyrido[3′,2′:4,5]pyrrolo[1,2-c]pyrimidine], the IC50 was greater than 3000 nM in the data set with P-388, 160 nM with A-549 and 160 nM in the data set on HT-29.
Turning to `C[n+]1c([O-])cc(-c2c3c(O)ccnc3n3c(N)nccc23)nc1N` [Variolin A], in the data set on P388 cell line, the “cytotoxic activity against the P388 cell line” value was “important cytotoxic activity”.
For `CN1C(N)=NCCC1c1c2c(O)ccnc2n2c(N)nccc12` (stereo not shown) [N(3′)-methyltetrahydrovariolin B, N (3′)-methyl tetrahydrovariolin B], the “in vitro activity against the HCT 116 cell line” value with HCT 116 cell line is reported as “in vitro activity”. The “growth of Sacharomyces cerevisiae” value with Sacharomyces cerevisiae is “inhibited the growth”.
Take `Nc1nccc(-c2c3cccnc3n3c(N)nccc23)n1` [Compound 5, 9-Amino-5-(2-aminopyrimidin-4-yl)pyrido[3′,2′:4,5]pyrrolo[1,2-c]-pyrimidine]: the IC50 is 360 nM in the data set with P-388, 40 nM with A-549 and 40 nM with HT-29.
`COC(=O)c1c2c(O)ccnc2n2c(N)nccc12` [Variolin D, variolin D]: the “activity in all the assays” value in data set [1] was “inactive”.
